Experimental data reported in publication PMC11974712 (bioRxiv, 2025).

Target: Human Fatty Acid Binding Protein (FABP4) (Homo sapiens, UniProt P15090)
Test: Binding inhibition assay: displacement of the fluorescent probe ANS from FABP4
Conditions: for binding to FABP4 (in words): ANS displacement

Human Fatty Acid Binding Protein (FABP4), sequence (P15090 whole entry): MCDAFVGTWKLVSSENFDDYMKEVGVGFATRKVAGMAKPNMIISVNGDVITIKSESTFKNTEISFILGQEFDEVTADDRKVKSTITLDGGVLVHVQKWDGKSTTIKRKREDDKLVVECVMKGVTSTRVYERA

| Kd [µM] | binding to FABP4 (in words) | SMILES | fold increase in affinity relative to hydrogenated analog heptanoic acid (ratio of Kd values) |
| --- | --- | --- | --- |
| < 1 |  | O=C(O)C(F)(F)C(F)(F)C(F)(F)C(F)(F)C(F)(F)C(F)(F)C(F)(F)C(F)(F)C(F)(F)C(F)(F)C(F)(F)F [PFDoA, Perfluorododecanoic Acid] |  |
|  | no detectable binding | CCCCCC(=O)O [Hexanoic Acid] |  |

More lines, now with the values behind:

| SMILES | Kd [µM] | binding to FABP4 (in words) | fold increase in affinity relative to hydrogenated analog heptanoic acid (ratio of Kd values) |
| --- | --- | --- | --- |
| O=C(O)C(F)(F)C(F)(F)C(F)(F)C(F)(F)C(F)(F)C(F)(F)F [PFHpA, Perfluoroheptanoic Acid] | 4.46 ± 0.17 |  | approximately 30 fold |
| CCCCC(=O)O [Pentanoic Acid] |  | no detectable binding |  |
| CCCC(=O)O [Butanoic Acid] |  | no detectable binding |  |
| CCCCCCC(=O)O [Heptanoic Acid] | 145 ± 3.1 |  |  |
